Molecular target: T1, IRAK4 (Homo sapiens, UniProt Q9NWZ3)
T1 sequence (Q9NWZ3 1-460): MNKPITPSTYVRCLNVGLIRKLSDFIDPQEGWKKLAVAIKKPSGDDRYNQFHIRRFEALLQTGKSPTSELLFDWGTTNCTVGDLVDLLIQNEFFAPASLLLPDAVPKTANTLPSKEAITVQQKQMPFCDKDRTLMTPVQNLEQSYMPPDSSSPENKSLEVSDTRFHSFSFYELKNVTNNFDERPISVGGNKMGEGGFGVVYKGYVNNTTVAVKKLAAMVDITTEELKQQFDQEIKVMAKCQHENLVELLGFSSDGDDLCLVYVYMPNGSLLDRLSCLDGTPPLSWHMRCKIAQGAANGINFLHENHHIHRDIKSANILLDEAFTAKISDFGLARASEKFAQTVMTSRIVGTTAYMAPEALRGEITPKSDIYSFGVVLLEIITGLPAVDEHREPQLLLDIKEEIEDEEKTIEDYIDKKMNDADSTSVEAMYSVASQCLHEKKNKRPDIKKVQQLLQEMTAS
Test: IRAK-4 activity inhibition assay (Caliper)
Format: biochemical
Details: 37 μM ATP, 3.5 nM IRAK4
Protocol: A 1× kinase base buffer was prepared from 50 mM HEPES, pH 7.5 and 0.0015% Brij-35. A stop buffer was prepared from 100 mM HEPES, pH 7.5, 0.015% Brij-35, 0.2% Coating Reagent #3, and 50 mM EDTA.
Test compound was diluted to 50× of the final desired highest inhibitor concentration in reaction by 100% DMSO. 100 μl of this compound dilution was transferred to a well in a 96-well plate.
Test compound was serially diluted by transferring 30 μl to 60 μl of 100% DMSO in the next well and so forth for a total of 10 concentrations. 100 μl of 100% DMSO was added to two empty wells for no compound control and no enzyme control in the same 96-well plate.
A new 96-well plate was marked as intermediate plate. 5 μl of compound serial dilution was transferred from source plate to the corresponding wells of the intermediate plate. 45 μl of 1× kinase base buffer (KB buffer) was added to each well of the intermediate plate. The intermediate plate was placed for 10 min on a shaker.
5 μl of each well was transferred from the 96-well intermediate plate to a 384-well plate in duplicates. […] A2 of the 96-well plate is transferred to A3 and A4 of the 384-well plate, and so on.
IRAK4 and DTT in 1× kinase base buffer was added.
Assay plate already contained 5 μl of compound in 10% DMSO. Added 10 μl of 2.5× enzyme solution to each well of the 384-well assay plate, except no enzyme control wells. […] Added 10 μl of 1× kinase base buffer to no enzyme control wells in the assay plate. Incubated at room temperature for 10 min.
Added 10 μl of 2.5× peptide solution to each well of the 384-well assay plate. […] Incubated at 28° C. for 40 minutes. Added 25 μl of stop buffer to stop reaction. Collected data on Caliper.
Copied conversion % data from Caliper program. Converted conversion % values to percent inhibition values. Percent inhibition=(max−conversion %)/(max−min)*100, where “max” means the conversion % of DMSO control and “min” means the conversion % of no enzyme control.
The compound numbers correspond to the compound numbers in Table 1. […] “NA” stands for “not assayed.”

IC50 [µM] | SMILES
5 to 20 | NC(=O)C[C@H]1CCc2sc3ncnc(OCC4CCNCC4)c3c21 [Compound I-143, 2-[(3R)-12-(piperidin-4-ylmethoxy)-7-thia-9,11-diazatricyclo[6.4.0.0[2,6]]dodeca-1(12),2(6),8,10-tetraen-3-yl]acetamide]
< 5 | CN[C@H]1CC[C@H](Oc2ncnc3sc4c(c23)[C@@H](C[C@H]2NC(=O)NC2=O)CC4)CC1 [Compound I-159, (5R)-5-[[(3R)-12-[[4-(methylamino)cyclohexyl]oxy]-7-thia-9,11-diazatricyclo[6.4.0.0[2,6]]dodeca-1(8),2(6),9,11-tetraen-3-yl]methyl]imidazolidine-2,4-dione]
< 5 | CN[C@]1(C)CC[C@@H](Oc2ncnc3sc4c(c23)[C@@H](CC(N)=O)CC4)CC1 [Compound I-156, 2-[(3R)-12-[[4-methyl-4-(methylamino)cyclohexyl]oxy]-7-thia-9,11-diazatricyclo[6.4.0.0[2,6]]dodeca-1(8),2(6),9,11-tetraen-3-yl]acetamide]
< 5 | CS(=O)(=O)N1CCc2sc3ncnc(O[C@H]4CC[C@H](N5CCOCC5)CC4)c3c2C1 [Compound I-187, 12-methanesulfonyl-3-[[4-(morpholin-4-yl)cyclohexyl]oxy]-8-thia-4,6, 12-triazatricyclo[7.4.0.0[2,7]]trideca-1(9),2(7),3,5-tetraene]
< 5 | CC1(C)Cc2c(sc3ncnc(O[C@H]4CC[C@H](N5CCOCC5)CC4)c23)CO1 [Compound I-193, 12,12-dimethyl-3-[[4-(morpholin-4-yl)cyclohexyl]oxy]-11-oxa-8-thia-4,6-diazatricyclo[7.4.0.0[2,7]]trideca-1(9),2(7),3,5-tetraene]

More lines, now with the values behind:

SMILES | IC50 [µM]
CCOC(=O)C1CCc2sc3ncnc(N[C@H]4CC[C@H](N)CC4)c3c21 (stereo partly drawn) [Compound I-2, ethyl 4-(((1r,4r)-4-aminocyclohexyl)amino)-6,7-dihydro-5H-cyclopenta[4,5]thieno[2,3-d]pyrimidine-5-carboxylate] | 20 to 50
CN(C)[C@H]1CC[C@H](Oc2ncnc3sc4c(c23)C[C@H](CC(N)=O)CC4)CC1 [Compound I-113, 2-[(12R)-3-[[4-(dimethylamino)cyclohexyl]oxy]-8-thia-4,6-diazatricyclo[7.4.0.0[2,7]]trideca-1(9),2(7),3,5-tetraen-12-yl]acetamide] | < 5
CN[C@H]1CC[C@H](Oc2ncnc3sc4c(c23)[C@@H](C[C@@H](O)C(N)=O)CC4)CC1 [Compound I-140, (2R)-2-hydroxy-3-[(3R)-12-[[4-(methylamino)cyclohexyl]oxy]-7-thia-9,11-diazatricyclo[6.4.0.0[2,6]]dodeca-1(8),2(6),9,11-tetraen-3-yl]propanamide] | < 5
COC(=O)CC1CCc2sc3ncnc(N[C@H]4CC[C@H](N(C)C)CC4)c3c21 (stereo partly drawn) [Compound I-11] | 5 to 20
CC[C@H](C[C@H]1CCc2sc3ncnc(O[C@H]4CC[C@H](N(C)C)CC4)c3c21)OC [Compound I-117, 4-[[(3R)-3-[(2R)-2-methoxybutyl]-7-thia-9,11-diazatricyclo[6.4.0.0[2,6]]dodeca-1(8),2(6),9,11-tetraen-12-yl]oxy]-N,N-dimethylcyclohexan-1-amine] | < 5
CN(C)[C@H]1CC[C@H](Oc2ncnc3sc4c(c23)[C@@H](C[C@H](O)C(F)(F)F)CC4)CC1 [Compound I-70, (S)-3-((R)-4-(((1r,4R)-4-(dimethylamino)cyclohexyl)oxy)-6,7-dihydro-5H-cyclopenta[4,5]thieno[2,3-d]pyrimidin-5-yl)-1,1,1-trifluoropropan-2-ol] | < 5
C=C[C@H](O)C[C@H]1CCc2sc3ncnc(O[C@H]4CC[C@](CC)(N(C)C)CC4)c3c21 [Compound I-124, (R)-1-((R)-4-(((1r,4R)-4-(dimethylamino)-4-ethylcyclohexyl)oxy)-6,7-dihydro-5H-cyclopenta[4,5]thieno[2,3-d]pyrimidin-5-yl)but-3-en-2-ol] | 5 to 20

Reference: patent US20160193216A1 (Nimbus Iris, Inc., priority 2012, published 2016)
